SMILES strings stand for the structures. Where two headings read alike, the source gives them in different places.

Results on 26 compounds are retold here after patent US8536202B2, “Triazole-substituted anthranilamides as pesticides” (Bayer Cropscience AG, priority 2010, dated 2013).

Data set [1] is described as follows: log P determination by HPLC on reversed-phase columns (EEC Directive 79/831 Annex V.A8). In kind it is physicochemical. The note with it: pH 2.7. The method, boiled down:
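log P from reversed-phase LC-MS retention at pH 2.7, 0.1% formic acid water/acetonitrile gradient 10–95% acetonitrile. Calibrated against C3–C16 unbranched alkan-2-ones, interpolating linearly between adjacent alkanones.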

In data set [2] the test system is larvae of the mustard beetle (Phaedon cochleariae). As to the kind of experiment: Phaedon test (PHAECO spray treatment). In kind it is in vivo. The note with it: 168 h, read-out: activity in %. Put shortly:
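Compound dissolved in acetone/dimethylformamide with alkylaryl polyglycol ether emulsifier, then diluted with emulsifier-containing water to test concentration for spray treatment of Phaedon cochleariae larvae. Activity scored after 7 days as % larvae killed (100% = all dead, 0% = none).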

For data set [3], the system named is caterpillars of the armyworm (Spodoptera frugiperda). As to the kind of experiment: Spodoptera frugiperda test (SPODFR spray treatment). The class given is in vivo. The note with it: 168 h; for pest or weed control at 100 g/ha: read-out: activity in %. Put shortly: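 Maize leaf discs sprayed with compound diluted in emulsifier-containing water (acetone/DMF solvent, alkylaryl polyglycol ether emulsifier), dried, then infested with armyworm caterpillars. Kill scored after 7 days as % mortality, 100% = all caterpillars dead, 0% = none.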

The mark [4] stands for this setting: reversed-phase C18 HPLC column, HPLC on reversed-phase columns (C 18), EEC Directive 79/831 Annex V.A8, read-out: logP.
Where [5] appears, read: HPLC on reversed-phase columns (C 18), EEC Directive 79/831 Annex V.A8, read-out: logP.

Turning to `Cc1cc(C#N)cc(C(=O)NC(C)C)c1NC(=O)c1cc(Cn2cc(C(F)(F)F)nn2)nn1-c1ccccc1Cl` [Example 290], the chromatographic logP in data set [1] (setting [4]) came out at 3.17. For the same compound, the pest or weed control at 100 g/ha was 100% in data set [2] (100 g/ha, after 7 days) and 100% in data set [3] (100 g/ha, after 7 days).

In data set [1], `CNC(=O)c1cc(Cl)cc(C)c1NC(=O)c1cc(Cn2ncc(-c3ccc(F)cc3)n2)nn1-c1ncccc1Cl` [Example 24] displayed a chromatographic logP of 3.23. Besides, the pest or weed control at 100 g/ha in data set [2] (100 g/ha, after 7 days) came to 100%; in data set [3] (100 g/ha, after 7 days), 100%.

Consider `Cc1cc(C#N)cc(C(=O)NC(C)(C)C)c1NC(=O)c1cc(Cn2nnc3c(Cl)c(Cl)c(Cl)cc32)nn1-c1ncccc1Cl` [Example 108], for which the chromatographic logP in data set [1] turned out to be 4.18. Also, the pest or weed control at 100 g/ha was 100% in data set [2] (100 g/ha, after 7 days) and 100% in data set [3] (100 g/ha, after 7 days).

As for `CCNC(=O)c1cc(Cl)cc(Cl)c1NC(=O)c1cc(Cn2ncc(C(F)(F)F)n2)nn1-c1ncccc1Cl` [Example 149], in data set [1], the chromatographic logP was found to be 3.2. Besides, the pest or weed control at 100 g/ha turned out to be 100% in data set [2] (100 g/ha, after 7 days) and 100% in data set [3] (100 g/ha, after 7 days).

Compound `Cc1cc(C#N)cc(C(=O)NC(C)(C)C)c1NC(=O)c1cc(Cn2ncc(-c3cccc(Cl)c3)n2)nn1-c1ncccc1Cl` [Example 65] displayed a chromatographic logP in data set [1] of 4.14. The pest or weed control at 100 g/ha is 100% in data set [2] (100 g/ha, after 7 days) and 100% in data set [3] (100 g/ha, after 7 days).

For `CNC(=O)c1cc(Cl)cc(C)c1NC(=O)c1cc(Cn2ncc(-c3ccc(Cl)cc3)n2)nn1-c1ncccc1Cl` [Example 25], the chromatographic logP in data set [1] was 3.62. For the same compound, the pest or weed control at 100 g/ha in data set [2] (100 g/ha, after 7 days) is 100%; in data set [3] (100 g/ha, after 7 days), 100%.

The compound `Cc1cc(Cl)cc(C(=O)NC(C)C2CC2)c1NC(=O)c1cc(Cn2ncc(C(F)(F)C(F)(F)F)n2)nn1-c1ncccc1Cl` (stereo not drawn) [Example 351] had a chromatographic logP in data set [1] of 4.21. The pest or weed control at 100 g/ha in data set [2] (100 g/ha, after 7 days) turned out to be 100%; in data set [3] (100 g/ha, after 7 days), 100%.

As for `Cc1cc(I)cc(C(=O)NC(C)(C)C)c1NC(=O)c1cc(Cn2cc(C(F)(F)F)nn2)nn1-c1ncccc1Cl` [Example 211], the chromatographic logP in data set [1] is 3.72. Also, the pest or weed control at 100 g/ha in data set [2] (100 g/ha, after 7 days) was 100%; in data set [3] (100 g/ha, after 7 days), 100%.

For the compound `CNC(=O)c1cc(Cl)cc(C)c1NC(=O)c1cc(Cn2nc3ccc([N+](=O)[O-])cc3n2)nn1-c1ncccc1Cl` [Example 75], the chromatographic logP in data set [1] stood at 2.95. Moreover, the pest or weed control at 100 g/ha in data set [2] (100 g/ha, after 7 days) is 100%; in data set [3] (100 g/ha, after 7 days), 100%.

`Cc1cc(Cl)cc(C(=O)NC(C)C2CC2)c1NC(=O)c1cc(Cn2nccn2)nn1-c1ncccc1Cl` (stereo not drawn) [Example 122] returned a chromatographic logP in data set [1] of 2.81. The pest or weed control at 100 g/ha in data set [2] (100 g/ha, after 7 days) worked out at 100%; in data set [3] (100 g/ha, after 7 days) it was 100%.

In data set [1], `O=C(NC1CCC1)c1cc(Cl)cc(Cl)c1NC(=O)c1cc(Cn2ncc(C(F)(F)F)n2)nn1-c1ncccc1Cl` [Example 153] came in with a chromatographic logP of 3.56. For the same compound, the pest or weed control at 100 g/ha amounted to 100% in data set [2] (100 g/ha, after 7 days) and 100% in data set [3] (100 g/ha, after 7 days).

On to `CC(NC(=O)c1cc(Cl)cc(Cl)c1NC(=O)c1cc(Cn2cc(C(F)(C(F)(F)F)C(F)(F)F)nn2)nn1-c1ncccc1Cl)C1CC1` (stereo not drawn) [Example 242], for which the chromatographic logP in data set [1] (setting [4]) was 4.08. Further, the pest or weed control at 100 g/ha came to 100% in data set [2] (100 g/ha, after 7 days) and 100% in data set [3] (100 g/ha, after 7 days).

`Cc1cc(I)cc(C(=O)NC(C)C2CC2)c1NC(=O)c1cc(Cn2ncc(C(F)(F)C(F)(F)F)n2)nn1-c1ncccc1Cl` (stereo not drawn) [Example 357] came in with a chromatographic logP in data set [1] of 4.45. Besides, the pest or weed control at 100 g/ha in data set [2] (100 g/ha, after 7 days) was determined as 100%; in data set [3] (100 g/ha, after 7 days) it was 100%.

As for `Cc1cc(Cl)cc(C(=O)NC2CC2)c1NC(=O)c1cc(Cn2ncc(C(F)(F)C(F)(F)C(F)(F)F)n2)nn1-c1ncccc1Cl` [Example 370], the chromatographic logP in data set [1] (setting [5]) came to 3.99. In addition, the pest or weed control at 100 g/ha in data set [2] and in data set [3] was 100% throughout.

Compound `Cc1cc(C#N)cc(C(=O)NC(C)(C)C)c1NC(=O)c1cc(Cn2ncc(-c3ccccc3Cl)n2)nn1-c1ncccc1Cl` [Example 64] showed a chromatographic logP in data set [1] of 4.03. Also, the pest or weed control at 100 g/ha was 100% in data set [2] (100 g/ha, after 7 days) and 100% in data set [3] (100 g/ha, after 7 days).

Take `O=C(NCC1CC1)c1cc(Cl)cc(Cl)c1NC(=O)c1cc(Cn2cc(C(F)(C(F)(F)F)C(F)(F)F)nn2)nn1-c1ncccc1Cl` [Example 245]: the chromatographic logP in data set [1] (setting [4]) is 3.84. Also, the pest or weed control at 100 g/ha in data set [2] (100 g/ha, after 7 days) turned out to be 100%; in data set [3] (100 g/ha, after 7 days) it was 100%.

In turn, `CNC(=O)c1cc(C#N)cc(C)c1NC(=O)c1cc(Cn2cc(-c3ccc(Cl)cc3)nn2)nn1-c1ncccc1Cl` [Example 33] gave a chromatographic logP in data set [1] of 2.75. Also, the pest or weed control at 100 g/ha in data set [2] (100 g/ha, after 7 days) was 100%; in data set [3] (100 g/ha, after 7 days), 100%.

`Cc1cc(I)cc(C(=O)NC(C)(C)C)c1NC(=O)c1cc(Cn2nc(C(F)(F)F)c(C(F)(F)F)n2)nn1-c1ncccc1Cl` [Example 404]: the chromatographic logP in data set [1] was determined as 4.84. In addition, the pest or weed control at 100 g/ha in data set [2] (100 g/ha, after 7 days) came out at 100%; in data set [3] (100 g/ha, after 7 days) it was 100%.

For `CCNC(=O)c1cc(Cl)cc(C)c1NC(=O)c1cc(Cn2ncc(C(F)(F)C(F)(F)C(F)(F)F)n2)nn1-c1ncccc1Cl` [Example 367], the chromatographic logP in data set [1] (setting [5]) is 4.03. Further, the pest or weed control at 100 g/ha in data set [2] and in data set [3] was 100% in each case.

Regarding `Cc1cc(I)cc(C(=O)NCC2CC2)c1NC(=O)c1cc(Cn2nc(C(F)(F)F)c(C(F)(F)F)n2)nn1-c1ncccc1Cl` [Example 401], the chromatographic logP in data set [1] came to 4.52. The pest or weed control at 100 g/ha was 100% in data set [2] (100 g/ha, after 7 days) and 100% in data set [3] (100 g/ha, after 7 days).

On to `Cc1cc(Cl)cc(C(=O)NCC2CC2)c1NC(=O)c1cc(Cn2ncc(C(F)(C(F)(F)F)C(F)(F)F)n2)nn1-c1ncccc1Cl` [Example 261], for which the chromatographic logP in data set [1] (setting [4]) worked out at 4.34. For the same compound, the pest or weed control at 100 g/ha came to 100% in data set [2] (100 g/ha, after 7 days) and 100% in data set [3] (100 g/ha, after 7 days).

For `CNC(=O)c1cc(Cl)cc(C)c1NC(=O)c1cc(Cn2nc3cc(Cl)c(Cl)cc3n2)nn1-c1ncccc1Cl` [Example 77], the chromatographic logP in data set [1] worked out at 3.73. For the same compound, the pest or weed control at 100 g/ha is 100% in data set [2] (100 g/ha, after 7 days) and 100% in data set [3] (100 g/ha, after 7 days).

As for `CNC(=O)c1cc(I)cc(C)c1NC(=O)c1cc(Cn2ncc(C(F)(F)C(F)(F)C(F)(F)F)n2)nn1-c1ncccc1Cl` [Example 377], in data set [1] (setting [5]), the chromatographic logP came to 4. Also, the pest or weed control at 100 g/ha in data set [2] and in data set [3] was 100% each time.

Compound `Cc1cc(I)cc(C(=O)NC(C)C)c1NC(=O)c1cc(Cn2cc(C(F)(C(F)(F)F)C(F)(F)F)nn2)nn1-c1ncccc1Cl` [Example 235] gave a chromatographic logP in data set [1] of 4.09. The pest or weed control at 100 g/ha was 100% in data set [2] (100 g/ha, after 7 days) and 100% in data set [3] (100 g/ha, after 7 days).

In the case of `CNC(=O)c1cc(I)cc(C)c1NC(=O)c1cc(Cn2nc(C(F)(F)F)c(C(F)(F)F)n2)nn1-c1ncccc1Cl` [Example 405], in data set [1], the chromatographic logP is 4.03. Further, the pest or weed control at 100 g/ha in data set [2] (100 g/ha, after 7 days) was 100%; in data set [3] (100 g/ha, after 7 days) it was 100%.

Turning to `Cc1cc(Cl)cc(C(=O)NC(C)C2CC2)c1NC(=O)c1cc(Cn2cc(C(F)(C(F)(F)F)C(F)(F)F)nn2)nn1-c1ncccc1Cl` (stereo not drawn) [Example 226], in data set [1] (setting [4]), the chromatographic logP came to 4.15. The pest or weed control at 100 g/ha in data set [2] (100 g/ha, after 7 days) was 100%. Further, the pest or weed control at 20 g/ha in data set [3] (20 g/ha, after 7 days) was 100%.
